Experiments:
B1 bradykinin receptor = target: T1, B1 bradykinin receptor (Homo sapiens, UniProt P46663)
T1 sequence (P46663 whole entry): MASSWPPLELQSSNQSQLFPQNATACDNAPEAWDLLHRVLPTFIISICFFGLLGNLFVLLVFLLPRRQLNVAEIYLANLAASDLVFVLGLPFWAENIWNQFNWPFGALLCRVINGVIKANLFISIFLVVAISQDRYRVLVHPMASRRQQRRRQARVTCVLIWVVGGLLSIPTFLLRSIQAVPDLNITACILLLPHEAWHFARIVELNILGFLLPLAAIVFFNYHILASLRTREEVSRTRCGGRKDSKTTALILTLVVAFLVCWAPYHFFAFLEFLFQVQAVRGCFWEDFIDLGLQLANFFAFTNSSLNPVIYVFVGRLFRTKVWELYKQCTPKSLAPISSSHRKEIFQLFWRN

[1] = target: T2, Corticotropin-releasing factor receptor 2 (Homo sapiens, UniProt Q13324)
T2 sequence (Q13324 whole entry): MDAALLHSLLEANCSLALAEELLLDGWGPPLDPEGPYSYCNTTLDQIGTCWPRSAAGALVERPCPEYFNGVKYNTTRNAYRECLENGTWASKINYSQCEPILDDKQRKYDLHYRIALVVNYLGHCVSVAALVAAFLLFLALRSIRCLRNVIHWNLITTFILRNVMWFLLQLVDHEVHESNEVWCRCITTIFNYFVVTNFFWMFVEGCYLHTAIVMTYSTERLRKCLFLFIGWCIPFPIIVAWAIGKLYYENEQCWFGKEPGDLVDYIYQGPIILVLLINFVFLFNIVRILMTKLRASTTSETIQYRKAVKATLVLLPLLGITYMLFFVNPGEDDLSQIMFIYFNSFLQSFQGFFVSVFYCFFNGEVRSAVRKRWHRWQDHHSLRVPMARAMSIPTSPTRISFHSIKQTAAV

[2] = target: T3, Endothelin receptor type B (Homo sapiens, UniProt P24530)
T3 sequence (P24530 whole entry): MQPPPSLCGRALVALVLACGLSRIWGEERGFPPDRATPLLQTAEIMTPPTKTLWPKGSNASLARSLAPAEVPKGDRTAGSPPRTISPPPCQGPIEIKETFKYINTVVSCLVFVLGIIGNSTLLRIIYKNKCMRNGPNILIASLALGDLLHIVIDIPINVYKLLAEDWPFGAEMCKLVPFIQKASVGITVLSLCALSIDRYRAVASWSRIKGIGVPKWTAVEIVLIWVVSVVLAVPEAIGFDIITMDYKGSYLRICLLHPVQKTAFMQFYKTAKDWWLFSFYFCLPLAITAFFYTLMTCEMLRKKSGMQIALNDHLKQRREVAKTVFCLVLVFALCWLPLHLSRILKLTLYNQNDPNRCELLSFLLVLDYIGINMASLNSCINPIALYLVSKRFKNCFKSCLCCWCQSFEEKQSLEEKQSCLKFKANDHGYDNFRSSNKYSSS

Glucagon receptor = Glucagon receptor (Homo sapiens, UniProt P47871)
Sequence of Glucagon receptor (P47871 whole entry): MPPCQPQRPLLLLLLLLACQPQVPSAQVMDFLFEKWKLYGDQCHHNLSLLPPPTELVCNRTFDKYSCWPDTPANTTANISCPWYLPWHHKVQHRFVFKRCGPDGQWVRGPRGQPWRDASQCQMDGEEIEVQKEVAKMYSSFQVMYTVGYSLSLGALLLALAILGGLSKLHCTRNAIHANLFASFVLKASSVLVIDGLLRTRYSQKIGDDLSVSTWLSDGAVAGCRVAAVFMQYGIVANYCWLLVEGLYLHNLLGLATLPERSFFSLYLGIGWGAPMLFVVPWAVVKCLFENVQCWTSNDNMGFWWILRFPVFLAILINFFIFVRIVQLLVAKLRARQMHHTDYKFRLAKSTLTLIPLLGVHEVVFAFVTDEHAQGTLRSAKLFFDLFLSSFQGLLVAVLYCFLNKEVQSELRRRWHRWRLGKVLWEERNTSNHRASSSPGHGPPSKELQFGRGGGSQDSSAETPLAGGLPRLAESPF

[3] = target: T4, Neuropeptide Y receptor type 2 (Homo sapiens, UniProt P49146)
T4 sequence (P49146 whole entry): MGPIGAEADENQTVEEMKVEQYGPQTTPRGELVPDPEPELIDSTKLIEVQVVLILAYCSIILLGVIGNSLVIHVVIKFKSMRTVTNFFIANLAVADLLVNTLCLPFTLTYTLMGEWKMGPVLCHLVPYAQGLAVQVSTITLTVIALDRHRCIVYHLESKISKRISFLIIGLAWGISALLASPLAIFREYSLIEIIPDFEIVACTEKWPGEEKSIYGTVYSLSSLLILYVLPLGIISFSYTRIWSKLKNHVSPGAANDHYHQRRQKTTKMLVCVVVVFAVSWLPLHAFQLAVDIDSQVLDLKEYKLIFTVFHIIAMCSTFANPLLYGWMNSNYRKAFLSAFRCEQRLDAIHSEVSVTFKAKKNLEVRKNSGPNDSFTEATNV

D(1A) dopamine receptor = D(1A) dopamine receptor (Homo sapiens, UniProt P21728)
Sequence of D(1A) dopamine receptor (P21728 whole entry): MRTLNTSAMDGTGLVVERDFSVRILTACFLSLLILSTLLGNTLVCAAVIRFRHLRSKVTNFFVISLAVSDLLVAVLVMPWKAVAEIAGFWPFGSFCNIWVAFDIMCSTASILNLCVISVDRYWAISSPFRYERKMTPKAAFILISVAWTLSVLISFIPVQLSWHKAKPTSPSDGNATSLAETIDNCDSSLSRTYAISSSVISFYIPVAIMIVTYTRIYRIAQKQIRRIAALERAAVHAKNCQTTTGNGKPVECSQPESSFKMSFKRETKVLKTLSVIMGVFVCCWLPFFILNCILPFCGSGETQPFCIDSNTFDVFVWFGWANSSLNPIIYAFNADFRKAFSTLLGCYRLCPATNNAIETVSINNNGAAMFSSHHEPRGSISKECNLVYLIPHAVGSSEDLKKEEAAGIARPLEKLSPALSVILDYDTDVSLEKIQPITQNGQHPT

Estrogen receptor beta = Estrogen receptor beta (Homo sapiens, UniProt Q92731)
Sequence of Estrogen receptor beta (Q92731 whole entry): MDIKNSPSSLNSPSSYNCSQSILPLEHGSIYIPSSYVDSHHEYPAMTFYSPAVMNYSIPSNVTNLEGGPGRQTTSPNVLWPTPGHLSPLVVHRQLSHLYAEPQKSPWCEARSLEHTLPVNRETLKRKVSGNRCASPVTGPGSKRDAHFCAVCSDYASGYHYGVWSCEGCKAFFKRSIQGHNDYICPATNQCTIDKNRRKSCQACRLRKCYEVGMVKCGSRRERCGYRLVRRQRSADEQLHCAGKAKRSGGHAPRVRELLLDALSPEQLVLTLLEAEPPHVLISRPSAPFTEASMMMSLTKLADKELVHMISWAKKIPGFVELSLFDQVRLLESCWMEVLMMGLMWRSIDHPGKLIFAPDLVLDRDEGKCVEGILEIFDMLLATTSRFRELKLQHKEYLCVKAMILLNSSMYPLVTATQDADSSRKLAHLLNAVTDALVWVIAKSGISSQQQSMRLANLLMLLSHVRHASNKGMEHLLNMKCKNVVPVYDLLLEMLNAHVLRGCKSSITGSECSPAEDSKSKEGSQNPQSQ

Histamine H2 receptor = Histamine H2 receptor (Homo sapiens, UniProt P25021)
Sequence of Histamine H2 receptor (P25021 whole entry): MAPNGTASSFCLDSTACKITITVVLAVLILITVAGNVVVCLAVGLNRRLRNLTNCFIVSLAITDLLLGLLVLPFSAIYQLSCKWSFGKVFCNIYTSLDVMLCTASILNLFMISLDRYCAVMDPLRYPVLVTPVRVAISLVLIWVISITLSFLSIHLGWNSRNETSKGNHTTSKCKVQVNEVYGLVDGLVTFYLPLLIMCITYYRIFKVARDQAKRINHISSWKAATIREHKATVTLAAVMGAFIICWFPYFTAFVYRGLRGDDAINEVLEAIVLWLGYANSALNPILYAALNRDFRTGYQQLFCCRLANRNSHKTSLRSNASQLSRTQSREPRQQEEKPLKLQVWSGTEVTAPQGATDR

[4] = target: T5, Muscarinic acetylcholine receptor M2 (Homo sapiens, UniProt P08172)
T5 sequence (P08172 whole entry): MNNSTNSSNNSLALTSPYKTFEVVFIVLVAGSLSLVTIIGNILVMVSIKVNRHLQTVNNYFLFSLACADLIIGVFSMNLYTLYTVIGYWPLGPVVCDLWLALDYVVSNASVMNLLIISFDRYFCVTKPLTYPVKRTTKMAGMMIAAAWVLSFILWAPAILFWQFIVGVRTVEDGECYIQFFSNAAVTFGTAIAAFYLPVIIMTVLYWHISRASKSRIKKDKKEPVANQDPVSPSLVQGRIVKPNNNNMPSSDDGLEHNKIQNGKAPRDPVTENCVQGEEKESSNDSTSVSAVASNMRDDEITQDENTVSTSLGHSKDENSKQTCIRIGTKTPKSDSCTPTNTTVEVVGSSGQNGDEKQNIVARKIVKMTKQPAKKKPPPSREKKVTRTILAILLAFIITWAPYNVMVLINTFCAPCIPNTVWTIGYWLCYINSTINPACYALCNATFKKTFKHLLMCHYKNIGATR

Histamine H1 receptor = Histamine H1 receptor (Homo sapiens, UniProt P35367); type: functional, cell-based
Sequence of Histamine H1 receptor (P35367 whole entry): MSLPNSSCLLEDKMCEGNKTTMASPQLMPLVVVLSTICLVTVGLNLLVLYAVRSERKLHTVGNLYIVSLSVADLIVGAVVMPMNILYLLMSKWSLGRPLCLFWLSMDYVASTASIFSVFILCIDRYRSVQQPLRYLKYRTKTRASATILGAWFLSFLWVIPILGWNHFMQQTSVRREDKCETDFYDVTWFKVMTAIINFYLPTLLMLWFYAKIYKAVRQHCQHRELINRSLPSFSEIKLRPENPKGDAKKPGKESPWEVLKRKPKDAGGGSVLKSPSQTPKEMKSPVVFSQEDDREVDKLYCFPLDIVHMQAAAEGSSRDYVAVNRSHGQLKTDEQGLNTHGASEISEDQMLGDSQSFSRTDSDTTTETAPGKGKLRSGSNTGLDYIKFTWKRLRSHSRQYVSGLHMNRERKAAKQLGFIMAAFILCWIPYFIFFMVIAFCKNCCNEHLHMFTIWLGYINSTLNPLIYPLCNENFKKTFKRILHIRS

Substance-P receptor = Substance-P receptor (Homo sapiens, UniProt P25103)
Sequence of Substance-P receptor (P25103 whole entry): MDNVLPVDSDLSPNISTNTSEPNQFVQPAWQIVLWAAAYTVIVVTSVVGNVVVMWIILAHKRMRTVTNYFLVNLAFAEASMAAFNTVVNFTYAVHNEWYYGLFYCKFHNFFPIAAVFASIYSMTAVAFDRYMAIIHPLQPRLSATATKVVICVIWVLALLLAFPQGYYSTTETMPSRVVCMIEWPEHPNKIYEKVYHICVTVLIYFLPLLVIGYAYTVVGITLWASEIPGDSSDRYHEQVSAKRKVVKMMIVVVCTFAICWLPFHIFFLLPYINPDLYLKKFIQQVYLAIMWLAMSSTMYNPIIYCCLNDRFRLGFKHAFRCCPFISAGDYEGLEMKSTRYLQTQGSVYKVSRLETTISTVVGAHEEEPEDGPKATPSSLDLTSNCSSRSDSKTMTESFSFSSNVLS

[5] = target: T6, Alpha-1A adrenergic receptor (Homo sapiens, UniProt P35348)
T6 sequence (P35348 whole entry): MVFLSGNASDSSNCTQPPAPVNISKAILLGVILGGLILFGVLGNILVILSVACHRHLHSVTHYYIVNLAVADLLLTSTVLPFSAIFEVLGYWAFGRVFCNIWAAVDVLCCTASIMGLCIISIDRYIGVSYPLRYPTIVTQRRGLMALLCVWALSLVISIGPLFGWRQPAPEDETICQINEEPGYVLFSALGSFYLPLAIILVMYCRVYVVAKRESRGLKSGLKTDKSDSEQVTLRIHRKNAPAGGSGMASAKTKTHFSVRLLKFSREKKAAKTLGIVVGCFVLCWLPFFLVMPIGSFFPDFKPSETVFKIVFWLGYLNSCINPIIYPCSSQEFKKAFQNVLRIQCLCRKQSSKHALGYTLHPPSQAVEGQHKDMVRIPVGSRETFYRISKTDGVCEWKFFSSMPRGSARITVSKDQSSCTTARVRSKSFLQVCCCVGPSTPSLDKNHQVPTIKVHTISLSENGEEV

Measured: AC50
Note: assay procedure not described here.

Fc1ccc([C@@H]2CCNC[C@H]2COc2ccc3c(c2)OCO3)cc1 [PAROXETINE]
> 30 µM: B1 bradykinin receptor | [1] | [2] | Glucagon receptor | [3]
> 10 µM: D(1A) dopamine receptor

O=c1c(O)c(-c2ccc(O)c(O)c2)oc2cc(O)cc(O)c12 [QUERCETIN]
> 10 µM: Histamine H2 receptor | [4] | D(1A) dopamine receptor
not listed: Histamine H1 receptor | Substance-P receptor | [5]
> 30 µM: all other assays above

O=c1[nH]c2ccccc2n1CCCN1CCN(C(c2ccccc2)c2ccccc2)CC1 [OXATOMIDE]
0.69 µM: Histamine H1 receptor

CCC(=O)O[C@](Cc1ccccc1)(c1ccccc1)[C@H](C)CN(C)C [PROPOXYPHENE]
> 10 µM: Substance-P receptor | [4] | D(1A) dopamine receptor | [5]
4.95 µM: Histamine H2 receptor
not listed: Histamine H1 receptor
> 30 µM: all other assays above

Cc1ccnc2c1NC(=O)c1cccnc1N2C1CC1 [NEVIRAPINE]
> 10 µM: Histamine H2 receptor | Substance-P receptor | [4] | D(1A) dopamine receptor | [5]
not listed: Histamine H1 receptor
> 30 µM: all other assays above

CCN1CCCC1CNC(=O)c1cc(S(=O)(=O)CC)ccc1OC (configuration not stated) [SULTOPRIDE]
> 30 µM: Histamine H1 receptor

NNC(=O)c1ccncc1 [ISONIAZID]
> 10 µM: Histamine H2 receptor | Substance-P receptor | D(1A) dopamine receptor | [5]
not listed: [4] | Histamine H1 receptor
> 30 µM: all other assays above

CC(C)NC[C@H](O)COc1ccc(CC(N)=O)cc1 [ESATENOLOL]
> 30 µM: B1 bradykinin receptor | [1] | [2] | Glucagon receptor | [3]
> 10 µM: Histamine H2 receptor | Substance-P receptor | [5]

CCCCOc1ccc(C(=O)CCN2CCCCC2)cc1 [DYCLONINE]
> 10 µM: Substance-P receptor | D(1A) dopamine receptor | [5]
2.81 µM: [4]
3.13 µM: Histamine H2 receptor
> 30 µM: all other assays above

COc1cc2[nH]c(C)c(CCN3CCN(c4ccccc4)CC3)c2cc1OC [OXYPERTINE]
0.645 µM: Histamine H1 receptor

CC(CN(C)C)C(C)(O)Cc1ccc(Cl)cc1 (configuration not stated) [CLOBUTINOL]
> 30 µM: Histamine H1 receptor

COc1cc(C(=O)OCc2cccc(COC(=O)c3cc(OC)c(OC)c(OC)c3)n2)cc(OC)c1OC [PIROZADIL]
> 30 µM: Histamine H1 receptor

CCC(NC(C)C)C(O)c1ccc(O)c2[nH]c(=O)ccc12 (configuration not stated) [PROCATEROL]
> 30 µM: D(1A) dopamine receptor

O=C(NCCO[N+](=O)[O-])c1cccnc1 [NICORANDIL]
> 30 µM: Histamine H1 receptor

C[N+]12CCC(CC1)C(OC(=O)C(O)(c1ccccc1)c1ccccc1)C2 (configuration not stated)
0.0032 µM: [4]

CCOC(=O)C(C)(C)Oc1ccc(Cl)cc1 [CLOFIBRATE]
> 30 µM: B1 bradykinin receptor | [1] | [2] | Estrogen receptor beta | Glucagon receptor | [3]
> 10 µM: [4] | D(1A) dopamine receptor

COc1cc(N)c(Cl)cc1C(=O)NC1CCN(CCCOc2ccc(F)cc2)CC1OC (configuration not stated) [CISAPRIDE]
> 30 µM: B1 bradykinin receptor | [1] | [2] | Glucagon receptor | [3]
> 10 µM: Histamine H2 receptor | [4] | D(1A) dopamine receptor

O=C1Nc2ccc(Cl)cc2C(c2ccccc2Cl)=NC1O (configuration not stated) [LORAZEPAM]
> 10 µM: Histamine H2 receptor | Substance-P receptor | [4] | D(1A) dopamine receptor | [5]
not listed: Histamine H1 receptor
> 30 µM: all other assays above
